Experimental findings from patent US6610708B1, “Cyclic amino compounds” (Sankyo Company, Limited, priority 1998, dated 2003) are described below.

The structures appear in SMILES notation.

In one data set the test system is platelet aggregation. In words: Antiaggregatory action in rats (ADP-induced platelet aggregation in PRP after intravenous administration). Format: in vivo. Particulars: Rattus norvegicus, 1 h, male SD rats, blood collected one hour after administration, versus control rats, read-out: Test 2 (% inhibition). On the procedure:
Antiaggregatory Action in Rats
Platelet aggregation was measured using an automatic platelet aggregometer (PAM-8C, Mebanix) using the method of G.V.R. Born [Nature, 194, 927-929(1962)] with a slight modification. The experimental animals were male SD rats (Japan SLC). One hour after intravenous administration of a test compound to the rats, blood was collected from the abdominal aorta under anesthesia, using 3.8% sodium citrate as an anticoagulant ( 1/9 volumes of blood). Platelet-rich plasma (PRP) was obtained by centrifugation (CR5DL, Hitachi) at 230× g for 15 min at room temperature. Platelet-poor plasma (PPP) was obtained by centrifugation of the remaining blood at 2,000× g for 10 min at room temperature. Platelet counts in PRP were measured by an automatic hematology analyzer (K-1000, Toa Iyo Denshi), and adjusted to 5×10^8 /ml by adding PPP, and then used for the platelet aggregation experiment. PRP (0.24 ml) was added to a cuvette and placed in the platelet aggregometer. After pre-incubation for 1.5 min at 37° C., 0.01 ml of 0.75 mM ADP were added to the cuvette to induce platelet aggregation. Platelet aggregation was monitored for 8 min.
Antiaggregatory action (% inhibition) of the test compound was determined from a comparison of the maximum aggregation of the test compound-treated rat with that of control rats (free of the administration of the test compound).

A further data set relates to Human Platelets. In words: Antiaggregatory action in human platelets (ADP-induced aggregation in platelet-rich plasma). To be noted: Platelet, human PRP, read-out: Test 1 (% inhibition) of platelet aggregation; for inhibition at 10 µg/mL: 10 μg/ml test compound; for inhibition at 30 µg/mL: 30 μg/ml test compound; for inhibition at 100 µg/mL: 100 μg/ml test compound. Format: cell-based. On the procedure: Antiaggregatory Action in Human Platelets
Platelet aggregation was measured using an automatic platelet aggregometer (PAM-8C, Mebanix) using the method of G.V.R. Born [Nature, 194, 927-929 ([…])] with a slight modification. Blood was collected from the antecubital vein of healthy volunteers who had not taken any medications for two weeks using 3.8% sodium citrate as an anticoagulant ( 1/9 volumes of blood). Platelet-rich plasma (PRP) was obtained by centrifugation (CR5DL, Hitachi) at 200× g for 15 min at room temperature. Platelet-poor plasma (PPP) was obtained by centrifugation of the remaining blood at 2,000× g for 10 min at room temperature. Platelet counts in PRP were measured by an automatic hematology analyzer (K-1000, Toa Iyo Denshi), and adjusted to 3×10^8 /ml by adding PPP. PRP prepared as described above was used for the platelet aggregation experiment. PRP (0.24 ml) containing a test compound was added to a cuvette and set placed in the platelet aggregometer. After pre-incubation for 1.5 min at 37° C., 0.01 ml of 0.25 mM ADP were added to the cuvette to induce platelet aggregation. Platelet aggregation was monitored for 10 min.
Antiaggregatory action of the test compound was determined as a percent inhibition (%) against platelet aggregation of a control (free of the test compound).

As for `N[C@@H](CSSC1CCN(C(C(=O)C2CC2)c2ccccc2F)C/C1=C/C(=O)O)C(=O)O` (stereo partly drawn) [Example 19 (d), (Z)-4-[(R)-2-Amino-2-carboxyethyldisulfanyl]-3-carboxymethylidene-1-(α-cyclopropylcarbonyl-2-fluorobenzyl)piperidine], the inhibition at 10 mg/kg with platelet aggregation is 89.2%.

`CCOC(=O)/C=C1\CN(C(C(=O)OC)c2ccccc2Cl)CCC1SS(=O)(=O)c1ccc(C)cc1.Cl` (stereo not drawn) [Example 7 (d), (E)-1-(2-chloro-α-methoxycarbonylbenzyl)-3-ethoxycarbonylmethylidene-4-(4-methylphenylsulfonylthio)piperidine hydrochloride] came in with a melting point of 73 to 78 °C. In addition, in the data set with platelet aggregation, the inhibition at 10 mg/kg worked out at 59%. For the same compound, in the data set with Human Platelets, the inhibition at 10 µg/mL came to 24.6%, the inhibition at 30 µg/mL was 60% and the inhibition at 100 µg/mL amounted to 99.1%.

As for `CCOC(=O)/C=C1\CN(C(C(=O)C2CC2)c2ccccc2F)CCC1SS(=O)(=O)c1ccc(C)cc1` (stereo not drawn) [Example 6 (d), (E)-1-(α-Cyclopropylcarbonyl-2-fluorobenzyl)-3-ethoxycarbonylmethylidene-4-(4-methylphenylsulfonylthio)piperidine], in the data set on platelet aggregation, the inhibition at 10 mg/kg came to 51.8%. Further, in the data set on Human Platelets, the inhibition at 10 µg/mL stood at 22.5%, the inhibition at 30 µg/mL was determined as 53.2% and the inhibition at 100 µg/mL is 100%.

`CS(=O)(=O)SC1CCN(C(C(=O)C2CC2)c2ccccc2F)CC1` (stereo not drawn) [Example 8, 1-(α-Cyclopropylcarbonyl-2-fluorobenzyl)-4-methylsulfonylthiopiperidine] had a melting point of 89 to 91 °C. For the same compound, in the data set with Human Platelets, the inhibition at 10 µg/mL stood at 19.5%, the inhibition at 30 µg/mL was 88% and the inhibition at 100 µg/mL was 100%.
